Measurements from patent US11426467B2, “Dosage regimes for the administration of an anti-CD25 ADC” (ADC THERAPEUTICS SA, priority 2017, dated 2022).

Test: Steroid administration with ADC, toxicity symptoms reported by subjects
Type: in vivo
Settings: steroid given with ADC dosage regimes

In the case of C[C@@H]1C[C@H]2[C@@H]3CCC4=CC(=O)C=C[C@]4(C)[C@@]3(F)[C@@H](O)C[C@]2(C)[C@@]1(O)C(=O)CO [dexamethasone, (8S,9R,10S,11S,13S,14S,16R,17R)-9-Fluoro-11,17-dihydroxy-17-(2-hydroxyacetyl)-10,13,16-trimethyl-6,7,8,9,10,11,12,13,14,15,16,17-dodecahydro-3H-cyclopenta[a]phenanthren-3-one], the “frequency and/or severity of toxicity symptom reported by subjects” value was “reduced the frequency and/or severity of toxicity symptom”.
